Legend:
Assay type in all cases: toxicity, cell-based
[1] = tested on: HEK-293T; test: Incucyte cell viability with HEK293T; details: human, 10 µM, compound concentration 10 uM
[2] = tested on: Fibroblast; test: Incucyte cell viability with human fibroblast; details: 10 µM, compound concentration 10 uM
[3] = tested on: U2OS; test: Incucyte cell viability with U2OS; details: human, 10 µM, compound concentration 10 uM
[4] = 0 h, replicate number 2, timepoint 0 hours
[5] = 6 h, replicate number 1, timepoint 6 hours
[6] = 12 h, replicate number 1, timepoint 12 hours
[7] = 18 h, replicate number 1, timepoint 18 hours
[8] = 18 h, replicate number 2, timepoint 18 hours
[9] = 24 h, replicate number 1, timepoint 24 hours
[10] = 6 h, replicate number 2, timepoint 6 hours
[11] = 12 h, replicate number 2, timepoint 12 hours
[12] = 24 h, replicate number 2, timepoint 24 hours
[13] = 0 h, replicate number 1, timepoint 0 hours
Also: unitless GR value; below 1 slowed growth and below 0 cell loss.

| Compound | Growth Rate [1, 5] | Growth Rate [1, 6] | Growth Rate [1, 7] | Growth Rate [1, 9] | Growth Rate [2, 5] | Growth Rate [2, 6] | Growth Rate [2, 7] | Growth Rate [2, 9] | Growth Rate [3, 4] | Growth Rate [3, 7] | Growth Rate [2, 10] | Growth Rate [2, 11] | Growth Rate [2, 8] | Growth Rate [2, 12] | Growth Rate [3, 5] | Growth Rate [3, 10] | Growth Rate [3, 6] | Growth Rate [3, 9] | Growth Rate [1, 13] | Growth Rate [2, 4] | further results |
| --- | --- | --- | --- | --- | --- | --- | --- | --- | --- | --- | --- | --- | --- | --- | --- | --- | --- | --- | --- | --- | --- |
| CC(COc1ccccc1)N(CCCl)Cc1ccccc1.Cl (centres undefined) [PHENOXYBENZAMINE HYDROCHLORIDE] | 0.03 | 0.28 | 0.49 | 0.56 | 0.45 | 0.55 | 0.49 | 0.51 | 0.42 | 0.94 | – | – | – | – | – | – | – | – | – | – | Growth Rate [1, 4]: 0.07; Growth Rate [1, 8]: 1 |
| C[C@H](N)Cn1ccc2cc(F)c(Cl)cc21.O=C(O)/C=C/C(=O)O | 0.52 | 0.55 | 0.67 | 0.66 | 0.43 | 0.49 | 0.6 | 0.6 | 0.24 | 0.92 | 0.72 | 0.81 | 0.9 | 0.79 | 0.36 | 0.68 | 0.57 | 0.91 | – | – | Growth Rate [3, 13]: -0.71 |
| CC(C)CCC[C@@H](C)[C@H]1CC[C@H]2[C@@H]3[C@H](O)C=C4C[C@@H](O)CC[C@]4(C)[C@H]3CC[C@]12C | – | – | 0.84 | 0.85 | 0.24 | 0.24 | 0.52 | 0.5 | 0.03 | – | 0.56 | 0.91 | 0.84 | 0.43 | 0.98 | – | – | – | 0.95 | -0.09 | Growth Rate [1, 4]: -0.21; Growth Rate [1, 12]: 0.96 |
| Cl.N=C(N)NC(=O)Cc1c(Cl)cccc1Cl [GUANFACINE HYDROCHLORIDE] | 0.87 | 0.84 | 0.76 | 0.76 | – | – | 0.88 | 0.38 | – | – | – | – | 0.92 | 0.81 | 0.84 | – | 0.99 | – | 0.44 | 0.01 | Growth Rate [2, 13]: 0.58 |
| COC(=O)N1CCN(C(=O)Cc2ccc(Cl)c(Cl)c2)C(CN2CCCC2)C1.O=C(O)/C=C/C(=O)O (centres undefined) | – | – | – | – | – | – | – | – | – | – | 0.71 | – | – | – | 0.36 | 0.4 | 0.75 | – | 1 | 0.83 | Growth Rate [1, 11]: 0.72; Growth Rate [3, 11]: 0.54; Growth Rate [3, 8]: 0.75; Growth Rate [3, 12]: 0.76 |
| CC(=O)c1cc(-c2ccccc2OCC2CC2)c2ncccn12 | – | – | 0.98 | – | – | – | – | – | 0.26 | 0.98 | 0.72 | 0.88 | – | – | 0.45 | 0.99 | – | 0.98 | 0.61 | 0.39 | Growth Rate [3, 13]: 0.8 |
| Br.CS(=O)(=O)Nc1c(O)ccc2c1CCCC2C1=NCCN1 (centres undefined) | – | 0.92 | – | – | – | – | – | 0.94 | -1 | 0.68 | – | – | – | – | -0.8 | – | 0.72 | 0.86 | – | 0.39 | Growth Rate [1, 10]: 0.33; Growth Rate [2, 13]: 0.32 |
| Br.Br.N=C(N)NCCSC(=N)N | 0.74 | 0.76 | 0.98 | 1 | 0.23 | 0.19 | 0.54 | 0.49 | 0.56 | 0.96 | 0.98 | – | – | – | – | 0.98 | 0.88 | 0.37 | – | 0.9 | Growth Rate [1, 11]: 0.86; Growth Rate [1, 8]: 0.92; Growth Rate [1, 12]: 0.81; Growth Rate [3, 13]: -0.2; Growth Rate [3, 11]: 0.99 |
| CC[C@@H](C)Nc1nc(C)nc2c(-c3ccc(OC)nc3C)c(C)nn12 [PEXACERFONT] | – | – | 0.93 | 0.84 | -0.25 | -0.18 | -0.19 | -0.13 | -1 | 0.67 | -0.51 | 0.49 | 0.94 | 1 | 1 | – | 0.45 | – | 0.85 | 0.28 | Growth Rate [1, 4]: 0.62; Growth Rate [1, 11]: 0.9 |

Source: ChEMBL document CHEMBL5058564, “EUbOPEN Chemogenomics Library 2 (Incucyte)” (2022)
